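These data come from cells grown in 96-well plates and exposed to compound for 48 hours at five concentrations. GI50: concentration for 50% inhibition of growth.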 Activity calls are given as the source filed them. No stated cut-off is given here; in the data, active = GI50 up to about 1.1 µM and inactive = higher.
Experiments:
Experiment in all cases: inhibition of tumour cell growth, NCI panel, 48 h
[1] = system: CAKI-1
[2] = system: K562
[3] = system: 786-0
[4] = system: UACC-257
[5] = system: SF-295
[6] = system: SK-MEL-28
[7] = system: SN12C
[8] = system: OVCAR-3
[9] = system: SF-268
[10] = system: UACC-62
[11] = system: MDA-N
[12] = system: A549
[13] = system: COLO 205
[14] = system: T47D
[15] = system: MCF7
[16] = system: HOP-92
[17] = system: IGROV-1
[18] = system: HL-60
[19] = system: DU-145
[20] = system: M14
[21] = system: HCT-15
[22] = system: SF-539
[23] = system: RPMI-8226
[24] = system: OVCAR-5
[25] = system: A498
[26] = system: EKVX
[27] = system: ACHN
[28] = system: SW-620
[29] = system: OVCAR-8
[30] = system: Hs-578T
[31] = system: LOX IMVI
[32] = system: KM12
[33] = system: HCT-116
[34] = system: NCI/ADR-RES
[35] = system: BT-549
[36] = system: MDA-MB-435
[37] = system: SK-MEL-5
[38] = system: MDA-MB-231
[39] = system: PC-3
[40] = system: CCRF-CEM
[41] = system: NCI-H23
[42] = system: OVCAR-4
[43] = system: NCI-H522
[44] = system: NCI-H226
[45] = system: RXF 393
[46] = system: SNB-19
[47] = system: HT-29
[48] = system: Malme-3M
[49] = system: SK-MEL-2
[50] = system: HOP-62
[51] = system: MOLT-4
[52] = system: TK-10
[53] = system: U-251
[54] = system: UO-31
[55] = system: HCC 2998
[56] = system: SK-OV-3
[57] = system: SNB-75
[58] = system: NCI-H460

With `CNC(=O)c1ccccc1-[s+]1c2ccccc2c(=O)n1C` (stereo unspecified) the GI50 [1] was > 100 µM (inactive), the GI50 [2] was > 100 µM (inactive) and the GI50 [3] was > 100 µM (inactive). For the same molecule, the GI50 [4] was > 100 µM (inactive), the GI50 [5] was > 100 µM (inactive) and the GI50 [6] was > 100 µM (inactive). The GI50 [7] was > 100 µM (inactive), the GI50 [8] was > 100 µM (inactive) and the GI50 [9] was > 100 µM (inactive). The GI50 [10] was > 100 µM (inactive), the GI50 [11] was > 100 µM (inactive) and the GI50 [12] was > 100 µM (inactive). For the same molecule, the GI50 [13] was > 100 µM (inactive), the GI50 [14] was > 100 µM (inactive) and the GI50 [15] was > 100 µM (inactive). The GI50 [16] was > 100 µM (inactive), the GI50 [17] was > 100 µM (inactive) and the GI50 [18] was > 100 µM (inactive). The GI50 [19] was > 100 µM (inactive), the GI50 [20] was > 100 µM (inactive) and the GI50 [21] was > 100 µM. For the same molecule, the GI50 [22] was > 100 µM (inactive), the GI50 [23] was > 100 µM (inactive) and the GI50 [24] was > 100 µM (inactive). For the same molecule, the GI50 [25] was > 100 µM (inactive), the GI50 [26] was > 100 µM (inactive) and the GI50 [27] was > 100 µM (inactive). For the same molecule, the GI50 [28] was > 100 µM (inactive), the GI50 [29] was > 100 µM (inactive) and the GI50 [30] was > 100 µM (inactive). For the same molecule, the GI50 [31] was > 100 µM (inactive), the GI50 [32] was > 100 µM (inactive) and the GI50 [33] was > 100 µM (inactive). For the same molecule, the GI50 [34] was > 100 µM (inactive), the GI50 [35] was > 100 µM (inactive) and the GI50 [36] was > 100 µM (inactive). For the same molecule, the GI50 [37] was > 100 µM (inactive), the GI50 [38] was > 100 µM (inactive) and the GI50 [39] was > 100 µM (inactive). For the same molecule, the GI50 [40] was > 100 µM (inactive), the GI50 [41] was > 100 µM (inactive) and the GI50 [42] was > 100 µM (inactive). The GI50 [43] was > 100 µM (inactive), the GI50 [44] was > 100 µM (inactive) and the GI50 [45] was > 100 µM (inactive). The GI50 [46] was > 100 µM (inactive), the GI50 [47] was > 100 µM (inactive) and the GI50 [48] was > 100 µM (inactive). The GI50 [49] was > 100 µM (inactive), the GI50 [50] was > 100 µM (inactive) and the GI50 [51] was > 100 µM (inactive). For the same molecule, the GI50 [52] was > 100 µM (inactive), the GI50 [53] was > 100 µM (inactive) and the GI50 [54] was > 100 µM (inactive).
For `CCSc1n/c(=C\c2ccco2)c2nnnn12`, the GI50 [1] was > 100 µM (inactive), the GI50 [3] was > 100 µM (inactive) and the GI50 [4] was > 100 µM (inactive). For the same molecule, the GI50 [5] was > 100 µM (inactive), the GI50 [6] was > 100 µM (inactive) and the GI50 [7] was > 100 µM (inactive). The GI50 [8] was > 100 µM (inactive), the GI50 [9] was > 100 µM (inactive) and the GI50 [10] was > 100 µM (inactive). The GI50 [11] was > 100 µM (inactive), the GI50 [12] was > 100 µM (inactive) and the GI50 [13] was > 100 µM (inactive). The GI50 [14] was > 100 µM (inactive), the GI50 [15] was > 100 µM (inactive) and the GI50 [55] was > 100 µM (inactive). For the same molecule, the GI50 [16] was > 100 µM (inactive), the GI50 [17] was > 100 µM (inactive) and the GI50 [19] was > 100 µM (inactive). The GI50 [20] was > 100 µM (inactive), the GI50 [21] was > 100 µM and the GI50 [56] was > 100 µM (inactive). The GI50 [22] was > 100 µM (inactive), the GI50 [23] was > 100 µM (inactive) and the GI50 [24] was > 100 µM (inactive). The GI50 [25] was > 100 µM (inactive), the GI50 [26] was > 100 µM (inactive) and the GI50 [27] was > 100 µM (inactive). For the same molecule, the GI50 [28] was > 100 µM (inactive), the GI50 [29] was > 100 µM (inactive) and the GI50 [30] was > 100 µM (inactive). The GI50 [31] was > 100 µM (inactive), the GI50 [32] was > 100 µM (inactive) and the GI50 [33] was > 100 µM (inactive). For the same molecule, the GI50 [34] was > 100 µM (inactive), the GI50 [35] was > 100 µM (inactive) and the GI50 [36] was > 100 µM (inactive). The GI50 [37] was > 100 µM (inactive), the GI50 [38] was > 100 µM (inactive) and the GI50 [39] was > 100 µM (inactive). The GI50 [40] was > 100 µM (inactive), the GI50 [41] was > 100 µM (inactive) and the GI50 [42] was > 100 µM (inactive). The GI50 [43] was > 100 µM (inactive), the GI50 [44] was > 100 µM (inactive) and the GI50 [45] was > 100 µM (inactive). The GI50 [46] was > 100 µM (inactive), the GI50 [47] was > 100 µM (inactive) and the GI50 [48] was > 100 µM (inactive). For the same molecule, the GI50 [49] was > 100 µM (inactive), the GI50 [50] was > 100 µM (inactive) and the GI50 [57] was > 100 µM (inactive). The GI50 [51] was > 100 µM (inactive), the GI50 [52] was > 100 µM (inactive) and the GI50 [53] was > 100 µM (inactive). The GI50 [54] was > 100 µM (inactive).
In the case of `O=c1[nH]c(=O)n(C2CC(O)C(CO)O2)cc1OCCCc1ccccc1` (stereo unspecified), the GI50 [1] was > 100 µM (inactive), the GI50 [2] was > 100 µM (inactive) and the GI50 [3] was > 100 µM (inactive). For the same molecule, the GI50 [4] was > 100 µM (inactive), the GI50 [5] was > 100 µM (inactive) and the GI50 [6] was > 100 µM (inactive). The GI50 [7] was > 100 µM (inactive), the GI50 [8] was > 100 µM (inactive) and the GI50 [9] was > 100 µM (inactive). For the same molecule, the GI50 [10] was > 100 µM (inactive), the GI50 [11] was > 100 µM (inactive) and the GI50 [12] was > 100 µM (inactive). The GI50 [13] was > 100 µM (inactive), the GI50 [14] was > 100 µM (inactive) and the GI50 [15] was > 100 µM (inactive). The GI50 [17] was > 100 µM (inactive), the GI50 [18] was > 100 µM (inactive) and the GI50 [19] was > 100 µM (inactive). The GI50 [20] was > 100 µM (inactive), the GI50 [21] was > 100 µM and the GI50 [56] was > 100 µM (inactive). For the same molecule, the GI50 [23] was > 100 µM (inactive), the GI50 [24] was > 100 µM (inactive) and the GI50 [26] was > 100 µM (inactive). The GI50 [27] was > 100 µM (inactive), the GI50 [29] was > 100 µM (inactive) and the GI50 [30] was > 100 µM (inactive). The GI50 [31] was > 100 µM (inactive), the GI50 [32] was > 100 µM (inactive) and the GI50 [33] was > 100 µM (inactive). The GI50 [34] was > 100 µM (inactive), the GI50 [35] was > 100 µM (inactive) and the GI50 [36] was > 100 µM (inactive). For the same molecule, the GI50 [37] was > 100 µM (inactive), the GI50 [38] was > 100 µM (inactive) and the GI50 [39] was > 100 µM (inactive). The GI50 [40] was > 100 µM (inactive), the GI50 [41] was > 100 µM (inactive) and the GI50 [42] was > 100 µM (inactive). The GI50 [43] was > 100 µM (inactive), the GI50 [44] was > 100 µM (inactive) and the GI50 [45] was > 100 µM (inactive). The GI50 [46] was > 100 µM (inactive), the GI50 [47] was > 100 µM (inactive) and the GI50 [48] was > 100 µM (inactive). The GI50 [50] was > 100 µM (inactive), the GI50 [57] was > 100 µM (inactive) and the GI50 [51] was > 100 µM (inactive). The GI50 [52] was > 100 µM (inactive), the GI50 [53] was > 100 µM (inactive) and the GI50 [54] was > 100 µM (inactive). For the same molecule, the GI50 [58] was > 100 µM (inactive).
